A short description of data set [1]: Single time point (1 h) brain concentrations after i.n. administration in rats. It counts as in vivo. The conditions noted are these: rat, 30 mg/kg i.n., 1 h post dose; for concentration at 1 h: male, Wistar, other: intranasal (i.n.).
The subject of data set [2] is GCP-II. The conditions noted are these: GCP-II inhibition, cited from earlier work.
Data set [3] is described as follows: Pharmacokinetics of 2-PMPA after i.n. administration in rats. The conditions noted are these: rat. It counts as in vivo.
Data set [4] is described as follows: Plasma and CSF exposure after i.n. administration in non-human primate. It counts as in vivo. The conditions noted are these: male cynomolgus monkey, 30 min post dose. The protocol: Total dose delivered was 100 mg.
Standard curves were generated in blank artificial CSF. […] Samples were analysed on agilent QTOF mass spectrometer by LC/MS.

For data set [5], the target named is T1, GCP-II (Rattus norvegicus, UniProt P70627).
T1 construct: from tissue; host or cells: rat brain (olfactory bulb, cortex, cerebellum), sonicated homogenate supernatant
In words: Ex vivo GCP-II enzymatic (NAAG hydrolyzing) activity in brain tissue after i.n. administration. The conditions noted are these: for inhibition at 30 mg/kg: inhaled or nasal, 30 mg/kg i.n., 1 h post dose, relative to untreated control rats. The protocol: One half of the brain tissues collected following i.n. administration (1h post dose) was used to determine GCP-II NAAG hydrolyzing activity. In brief, tissues were weighed and immersed in 0.5 mL of ice-cold 50 mM Tris Buffer (pH 7.7 at RT). Each tissue was sonicated for 30–60 seconds using an ultrasonic cell disrupter. After a 2 minute spin at 13,000 g, supernatants were analyzed for protein content and NAAG-hydrolyzing activity measurements were performed as previously described.

For data set [6] the following is noted: following systemic administration; ref [45]; cited from earlier work.
Data set [7] is described as follows: Pharmacokinetics of 2-PMPA after i.p. administration in rats. The conditions noted are these: rat, 30 mg/kg i.p. It counts as in vivo. The protocol:
For i.p. studies 2-PMPA was administered as a single i.p. dose. All dosing solutions were prepared on the day of the experiment in 50 mM HEPES buffered saline, and pH adjusted to 7.4 before injection. At various time points following drug administration (0.16, .5, 1, 3, 5 h) post dose, animals (n = 3 per time point, except 3 h n = 2 animals) were euthanized with CO2, and blood samples were collected in heparinized microtubes by cardiac puncture and tissues (olfactory bulb, frontal cortex, and cerebellum) were dissected and immediately flash frozen (-80°C). Plasma was prepared by centrifugation immediately after collection of blood samples. All samples were stored in -80°C until bioanalysis. […]
The maximum plasma concentration (Cmax) and time to Cmax (Tmax) were the observed values. The area under the plasma concentration time curve (AUC) value was calculated to the last quantifiable sample (AUClast) by use of the log-linear trapezoidal rule. The brain to plasma partition coefficients were calculated as a ratio of their AUCs (AUC0-t,brain/AUC0-t,plasma). The elimination half-life (t1/2) was determined by dividing 0.693 by λ z.

The conditions of data set [8]: non-human primates; halted development; no reference given; cited from earlier work.
The mark [9] stands for this setting: cerebellum, read-out: Mean concentration in cerebellum.
The mark [10] stands for this setting: frontal cortex, read-out: Mean concentration in cortex.
Setting [11] is: olfactory bulb, read-out: Mean concentration in olfactory bulb.
Setting [12] is: printed in Fig 1, no method or reference given in this paper, read-out: Potency (IC50).

Entries after “also recorded” stand apart in the source; their conditions may differ. Read-outs that look alike come from different tables or passages of the source.

T1 sequence (P70627 whole entry): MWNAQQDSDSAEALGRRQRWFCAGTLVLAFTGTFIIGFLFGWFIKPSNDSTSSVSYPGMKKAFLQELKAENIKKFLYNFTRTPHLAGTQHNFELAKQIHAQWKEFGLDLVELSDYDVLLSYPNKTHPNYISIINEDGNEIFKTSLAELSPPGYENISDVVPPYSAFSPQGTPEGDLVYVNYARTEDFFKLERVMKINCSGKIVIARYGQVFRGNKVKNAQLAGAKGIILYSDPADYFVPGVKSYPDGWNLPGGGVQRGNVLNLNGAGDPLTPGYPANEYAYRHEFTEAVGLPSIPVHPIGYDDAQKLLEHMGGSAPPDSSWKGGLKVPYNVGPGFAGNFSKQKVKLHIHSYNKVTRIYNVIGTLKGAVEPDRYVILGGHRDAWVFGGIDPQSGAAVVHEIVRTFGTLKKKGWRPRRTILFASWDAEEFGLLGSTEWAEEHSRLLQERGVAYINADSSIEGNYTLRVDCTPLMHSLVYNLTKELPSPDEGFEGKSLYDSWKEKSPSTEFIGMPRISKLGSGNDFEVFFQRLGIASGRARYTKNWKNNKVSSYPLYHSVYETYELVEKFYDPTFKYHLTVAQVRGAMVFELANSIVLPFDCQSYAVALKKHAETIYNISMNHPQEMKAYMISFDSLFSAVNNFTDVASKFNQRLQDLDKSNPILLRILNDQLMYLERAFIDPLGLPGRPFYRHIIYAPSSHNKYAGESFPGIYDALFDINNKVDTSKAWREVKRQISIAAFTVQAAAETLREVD

In the case of `O=C(O)CC[C@H](NC(=O)N[C@@H](CS)C(=O)O)C(=O)O` [DCMC, N-[N-[(S)-1,3-dicarboxypropyl]carbamoyl]-L-cysteine, reference compound], the concentration at 1 h in data set [1] (setting [9]) is 200 ng/g; in data set [1] (setting [10]) it was 2030 ng/g; in data set [1] (setting [11]), 2120 ng/g. For the same compound, in data set [2] (setting [12]), the IC50 (as a rule, the concentration needed to halve the response being measured) is 3.1 nM.

With `O=C(O)CCC(CP(=O)(O)O)C(=O)O` (stereo not drawn) [2-PMPA, 2-(phosphonomethyl)-pentanedioic acid], in data set [1], the “Mean concentration in cerebellum” value is 2.13 µg/g, the “Mean concentration in cortex” value came out at 10.3 µg/g and the “Mean concentration in olfactory bulb” value was 31.2 µg/g. Also, in data set [3] (male, Wistar, other: intranasal (i.n.), 30 mg/kg i.n., plasma), the Cmax is 24700 ng/mL. Further, the AUC(0-t) in data set [3] (male, Wistar, plasma, other: intranasal (i.n.), 30 mg/kg i.n., read-out: AUC0-t plasma) turned out to be 52300 ng·h/mL. Also, in data set [3] (30 mg/kg i.n.), the AUC0-t cerebellum was determined as 5.27 µg·h/g; the AUC0-t cortex was 37.7 µg·h/g; the AUC0-t olfactory bulb came to 78.1 µg·h/g; the “Brain tissue to plasma ratio (AUC0-t,brain/AUC0-t,plasma), cerebellum” value turned out to be […]. Also, in data set [3] (30 mg/kg i.n.), the “Brain tissue to plasma ratio (AUC0-t,brain/AUC0-t,plasma), cortex” value stood at 0.71 and the “Brain tissue to plasma ratio (AUC0-t,brain/AUC0-t,plasma), olfactory bulb” value stood at 1.49. Besides, the “Share of 2-PMPA reaching the brain accounted from the plasma” value in data set [3] (i.n., pooled plasma and brain data of i.p. and i.n. routes) worked out at […]. Besides, the “CSF concentration versus the IC50” value in data set [4] (i.n.) is on record as […]. The compound further registered a Plasma level in data set [4] (total dose 100 mg i.n., below the limit of quantitation) of […]. Besides, the “Inhibition of brain GCP-II enzymatic activity ex-vivo (in words)” value in data set [5] (i.n. administration) is “complete inhibition”. The inhibition (in general, the relative decrease from the control value, in per cent) at 30 mg/kg in data set [5] (read-out: Inhibition of GCP-II activity, cerebellum) was found to be 70%. The inhibition at 30 mg/kg in data set [5] (read-out: Inhibition of GCP-II activity, cortex) amounted to […]. In addition, the inhibition at 30 mg/kg in data set [5] (read-out: Inhibition of GCP-II activity, olfactory bulb) is […]. Also, in data set [2] (ref [4],[13], read-out: IC50), the IC50 was […]. Further, the “Brain to plasma ratio” value in data set [6] was […]. In data set [7] (male, Wistar, cerebellum, ip, read-out: Brain tissue to plasma ratio (AUC0-t,brain/AUC0-t,plasma), cerebellum), the Kp is […]. Besides, the Kp in data set [7] (male, Wistar, frontal cortex, ip, read-out: Brain tissue to plasma ratio (AUC0-t,brain/AUC0-t,plasma), cortex) was […]. In addition, in data set [7] (male, Wistar, ip, plasma, read-out: Elimination t1/2 (converted)), the half-life is 59.4 min. Also, the Cmax in data set [7] (male, Wistar, ip, plasma, read-out: Peak plasma concentration (Cmax)) amounted to 49500 ng/mL. Moreover, the AUC(0-t) in data set [7] (male, Wistar, plasma, ip, read-out: AUC0-t plasma) is […]. In addition, the CL/F in data set [7] (male, Wistar, plasma, ip, read-out: Apparent clearance) stood at 9.71 mL/min/kg. Further, in data set [7], the AUC0-t cerebellum came out at 0.80 µg·h/g, the AUC0-t cortex turned out to be […], the AUC0-t olfactory bulb was determined as 1.15 µg·h/g and the “Apparent volume of distribution” value is 0.82 L/kg.

`O=C(O)CCC(CCCS)C(=O)O` (stereo not drawn) [2-MPPA, 2-(3-mercaptopropyl)pentane-dioic acid]: in data set [8], the “Toxicity observed in primate studies” value is recorded as “membranoproliferative glomerular nephritis; also recorded: immunological toxicities”. The concentration at 1 h came to 210 ng/g in data set [1] (setting [9]), 260 ng/g in data set [1] (setting [10]) and 4460 ng/g in data set [1] (setting [11]). For the same compound, the IC50 in data set [2] (setting [12]) is 90 nM.

The record behind these values is PMC4494705 (PLoS ONE, 2015).
